From US10780090B2, “Heteroaryl compounds useful as inhibitors of SUMO activating enzyme” (Millennium Pharmaceuticals, Inc., priority 2014, dated 2020) come the findings set out here.

For orientation: inhibition means the drop in the measured response relative to a control, in per cent. In general, IC50 refers to the concentration that inhibits the measured activity by half.

The assay addresses recombinant human SAE enzyme (Homo sapiens (Human), UniProt Q9UBT2). Put plainly: SAE HTRF enzyme assay. In kind it is biochemical. As to conditions: for inhibition at 0.111 µM: read-out: Percent Inhibition; for IC50: class symbols A/B/C. The gist of the method: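 0.11 nM SAE incubated with 0.5 μM ATP, 0.01 μM Ubc9-GST and 0.125 μM Sumo-Flag in HEPES pH 7.5, MgCl2, GSH, BSA, ±inhibitor, 105 min at 24° C. EDTA stop; Eu-cryptate anti-Flag/XL-APC anti-GST HTRF read after 2 h. Values given as single-concentration % inhibition or IC50.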

Chain of recombinant human SAE enzyme (Q9UBT2 whole entry): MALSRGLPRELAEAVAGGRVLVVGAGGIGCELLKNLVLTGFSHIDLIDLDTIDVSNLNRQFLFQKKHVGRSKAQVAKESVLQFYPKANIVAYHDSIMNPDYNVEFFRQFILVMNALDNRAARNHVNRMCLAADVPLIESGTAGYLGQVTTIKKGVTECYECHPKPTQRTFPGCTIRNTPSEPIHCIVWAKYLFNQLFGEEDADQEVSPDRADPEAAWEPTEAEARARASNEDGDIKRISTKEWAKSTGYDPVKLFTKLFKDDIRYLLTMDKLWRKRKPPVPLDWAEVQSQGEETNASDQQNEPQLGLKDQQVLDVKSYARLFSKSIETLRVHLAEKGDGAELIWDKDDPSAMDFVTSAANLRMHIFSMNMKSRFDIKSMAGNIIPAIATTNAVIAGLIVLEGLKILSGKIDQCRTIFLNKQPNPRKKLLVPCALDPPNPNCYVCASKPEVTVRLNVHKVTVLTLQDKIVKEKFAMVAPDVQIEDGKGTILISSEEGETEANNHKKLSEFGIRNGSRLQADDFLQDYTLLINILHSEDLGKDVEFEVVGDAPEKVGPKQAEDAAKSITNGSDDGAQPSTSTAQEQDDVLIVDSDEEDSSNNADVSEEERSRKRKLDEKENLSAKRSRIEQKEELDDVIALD
Chain of recombinant human SAE enzyme (Q9UBE0 whole entry partner): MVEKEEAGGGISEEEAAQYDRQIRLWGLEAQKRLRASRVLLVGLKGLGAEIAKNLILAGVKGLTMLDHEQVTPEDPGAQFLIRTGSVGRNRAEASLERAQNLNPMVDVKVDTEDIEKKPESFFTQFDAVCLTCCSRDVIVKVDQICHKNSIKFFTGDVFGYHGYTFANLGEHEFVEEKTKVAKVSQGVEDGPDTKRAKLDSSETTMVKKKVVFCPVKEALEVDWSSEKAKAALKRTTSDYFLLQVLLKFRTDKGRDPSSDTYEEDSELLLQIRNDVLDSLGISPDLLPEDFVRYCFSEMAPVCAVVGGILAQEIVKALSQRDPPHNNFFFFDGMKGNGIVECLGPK

Take `NS(=O)(=O)OC[C@H]1C[C@@H](Nc2ncncc2C(=O)c2cc(Cn3cc(C(F)(F)F)cn3)cs2)C[C@@H]1O` [I-130, [(1R,2S,4R)-2-hydroxy-4-({5-[(4-{[4-(trifluoromethyl)-1H-pyrazol-1-yl]methyl}-2-thienyl)carbonyl]pyrimidin-4-yl}amino)cyclopentyl]methyl sulfamate]: the IC50 was less than 10 nM. Moreover, the inhibition at 0.111 µM (Concentration 0.111 μM) was 97%.

As for `Cc1ccccc1OCc1csc(C(=O)c2cncnc2N[C@@H]2C[C@H](COS(N)(=O)=O)[C@@H](O)C2)c1` [I-131, [(1R,2S,4R)-2-hydroxy-4-{[5-({4-[(2-methylphenoxy)methyl]-2-thienyl}carbonyl)pyrimidin-4-yl]amino}cyclopentyl]methyl sulfamate], the IC50 was less than 10 nM. The inhibition at 0.111 µM (Concentration 0.111 μM) stood at 96%.

On to `Cc1ccc2ccn(Cc3csc(C(=O)c4cncnc4N[C@@H]4C[C@H](COS(N)(=O)=O)[C@@H](O)C4)c3)c2c1` [I-132, [(1R,2S,4R)-2-hydroxy-4-{[5-({4-[(6-methyl-1H-indol-1-yl)methyl]-2-thienyl}carbonyl)pyrimidin-4-yl]amino}cyclopentyl]methyl sulfamate], for which the 50% inhibitory concentration (IC50) is less than 10 nM. In addition, under “Concentration 0.111 μM”, the inhibition at 0.111 µM was 96%.

Take `NS(=O)(=O)OC[C@H]1C[C@@H](Nc2ncncc2C(=O)c2ccc(-c3ccccc3)o2)[C@H](O)[C@@H]1O` [I-134, [(1R,2R,3S,4R)-2,3-dihydroxy-4-{[5-(5-phenyl-2-furoyl)pyrimidin-4-yl]amino}cyclopentyl]methyl sulfamate]: the IC50 is less than 10 nM. In addition, where the note is “Concentration 0.111 μM”, the inhibition at 0.111 µM worked out at 94%.

For `Cc1sc(C(=O)c2cncnc2N[C@@H]2C[C@H](COS(N)(=O)=O)[C@@H](O)C2)cc1Sc1ccccc1` [I-137, {(1R,2S,4R)-2-hydroxy-4-[(5-{[5-methyl-4-(phenylsulfanyl)-2-thienyl]carbonyl}pyrimidin-4-yl)amino]cyclopentyl}methyl sulfamate], the inhibition at 0.111 µM (Concentration 0.111 μM) came to 95%.

Take `CN(Cc1csc(C(=O)c2cncnc2N[C@@H]2C[C@H](COS(N)(=O)=O)[C@@H](O)C2)c1)c1cccc(Cl)c1` [I-138, [(1R,2S,4R)-4-({5-[(4-{[(3-Chlorophenyl)(methyl)amino]methyl}-2-thienyl)carbonyl]pyrimidin-4-yl}amino)-2-hydroxycyclopentyl]methyl sulfamate]: the IC50 is less than 10 nM. Moreover, the inhibition at 0.111 µM (Concentration 0.111 μM) amounted to 96%.

In the case of `NS(=O)(=O)OC[C@H]1C[C@@H](Nc2ncncc2C(=O)c2cc(Cc3ccccc3)c(Cc3ccccc3)o2)C[C@@H]1O` [I-139, [(1R,2S,4R)-4-{[5-(4,5-dibenzyl-2-furoyl)pyrimidin-4-yl]amino}-2-hydroxycyclopentyl]methyl sulfamate], the IC50 was less than 10 nM. The inhibition at 0.111 µM (Concentration 0.111 μM) stood at 94%.

Regarding `NS(=O)(=O)OC[C@H]1C[C@@H](Nc2ncncc2C(=O)c2cc(CC3=CCCCC3)cs2)C[C@@H]1O` [I-140, {(1R,2S,4R)-4-[(5-{[4-(Cyclohex-1-en-1-ylmethyl)-2-thienyl]carbonyl}pyrimidin-4-yl)amino]-2-hydroxycyclopentyl}methyl sulfamate], the IC50 is less than 10 nM. Besides, under “Concentration 0.111 μM”, the inhibition at 0.111 µM was 93%.

Take `NS(=O)(=O)OC[C@H]1C[C@@H](Nc2ncncc2C(=O)c2cc(CO)c(Cc3cccc(Cl)c3)s2)C[C@@H]1O` [I-142, {(1R,2S,4R)-4-[(5-{[5-(3-chlorobenzyl)-4-(hydroxymethyl)-2-thienyl]carbonyl}pyrimidin-4-yl)amino]-2-hydroxycyclopentyl}methyl sulfamate]: the half-maximal inhibitory concentration (IC50) is less than 10 nM. The inhibition at 0.111 µM (Concentration 0.111 μM) turned out to be 94%.

For `Cc1sc(C(=O)c2cncnc2N[C@@H]2C[C@H](COS(N)(=O)=O)[C@@H](O)C2)cc1Sc1cccc(Cl)c1` [I-143, [(1R,2S,4R)-4-{[5-({4-[(3-chlorophenyl)sulfanyl]-5-methyl-2-thienyl}carbonyl)pyrimidin-4-yl]amino}-2-hydroxycyclopentyl]methyl sulfamate], the half-inhibitory concentration (IC50) is less than 10 nM. In addition, the inhibition at 0.111 µM (Concentration 0.111 μM) was 94%.

As to `NS(=O)(=O)OC[C@H]1C[C@@H](Nc2ncncc2C(=O)c2cc(Cc3ccccc3)c(Cc3ccccc3)s2)C[C@@H]1O` [I-144, [(1R,2S,4R)-4-({5-[(4,5-Dibenzyl-2-thienyl)carbonyl]pyrimidin-4-yl}amino)-2-hydroxycyclopentyl]methyl sulfamate], the IC50 is less than 10 nM. For the same molecule, where the note is “Concentration 0.111 μM”, the inhibition at 0.111 µM was determined as 93%.

`Cc1sc(C(=O)c2cncnc2N[C@@H]2C[C@H](COS(N)(=O)=O)[C@@H](O)C2)cc1Sc1cccc(C(F)(F)F)c1` [I-145, [(1R,2S,4R)-2-hydroxy-4-({5-[(5-methyl-4-{[3-(trifluoromethyl)phenyl]sulfanyl}-2-thienyl)carbonyl]pyrimidin-4-yl}amino)cyclopentyl]methyl sulfamate]: the IC50 was less than 10 nM. In addition, the inhibition at 0.111 µM (Concentration 0.111 μM) amounted to 93%.

For `NS(=O)(=O)OC[C@H]1C[C@@H](Nc2ncncc2C(=O)c2cc(CCc3cccc(Cl)c3)cs2)C[C@@H]1O` [I-146, [(1R,2S,4R)-4-{[5-({4-[2-(3-chlorophenyl)ethyl]-2-thienyl}carbonyl)pyrimidin-4-yl]amino}-2-hydroxycyclopentyl]methyl sulfamate], the IC50 was less than 10 nM. Besides, for the setting “Concentration 0.111 μM”, the inhibition at 0.111 µM is 94%.

For `NS(=O)(=O)OC[C@H]1C[C@@H](Nc2ncncc2C(=O)c2cc(CSc3ccccc3Cl)cs2)C[C@@H]1O` [I-147, [(1R,2S,4R)-4-({5-[(4-{[(2-chlorophenyl)sulfanyl]methyl}-2-thienyl)carbonyl]pyrimidin-4-yl}amino)-2-hydroxycyclopentyl]methyl sulfamate], the IC50 was less than 10 nM. Also, the inhibition at 0.111 µM (Concentration 0.111 μM) came out at 94%.

As for `Cc1sc(C(=O)c2cncnc2N[C@@H]2C[C@H](COS(N)(=O)=O)[C@@H](O)C2)cc1Cn1cc(Br)cc1C#N` [I-148, [(1R,2S,4R)-4-{[5-({4-[(4-bromo-2-cyano-1H-pyrrol-1-yl)methyl]-5-methyl-2-thienyl}carbonyl)pyrimidin-4-yl]amino}-2-hydroxycyclopentyl]methyl sulfamate], the IC50 was less than 10 nM. For the same molecule, where the note is “Concentration 0.111 μM”, the inhibition at 0.111 µM was determined as 91%.

On to `NS(=O)(=O)OC[C@H]1C[C@@H](Nc2ncncc2C(=O)c2cc(Cc3cccc(Cl)c3Cl)cs2)C[C@@H]1O` [I-155, {(1R,2S,4R)-4-[(5-{[4-(2,3-dichlorobenzyl)-2-thienyl]carbonyl}pyrimidin-4-yl)amino]-2-hydroxycyclopentyl}methyl sulfamate], for which the IC50 was less than 10 nM. Also, the inhibition at 0.111 µM (Concentration 0.111 μM) was determined as 92%.

For `CCOc1ccccc1OCc1csc(C(=O)c2cncnc2N[C@@H]2C[C@H](COS(N)(=O)=O)[C@@H](O)C2)c1` [I-156, [(1R,2S,4R)-4-{[5-({4-[(2-ethoxyphenoxy)methyl]-2-thienyl}carbonyl)pyrimidin-4-yl]amino}-2-hydroxycyclopentyl]methyl sulfamate], the IC50 was less than 10 nM. In addition, for the setting “Concentration 0.111 μM”, the inhibition at 0.111 µM turned out to be 92%.

`NS(=O)(=O)OC[C@H]1C[C@@H](Nc2ncncc2C(=O)c2cc(Cc3ccc(Cl)cc3)cs2)C[C@@H]1O` [I-157, {(1R,2S,4R)-4-[(5-{[4-(4-chlorobenzyl)-2-thienyl]carbonyl}pyrimidin-4-yl)amino]-2-hydroxycyclopentyl}methyl sulfamate]: for the setting “Concentration 0.111 μM”, the inhibition at 0.111 µM is 92%.

For `NS(=O)(=O)OC[C@H]1C[C@@H](Nc2ncncc2C(=O)c2ccc(-c3ccccc3Cl)o2)[C@H](O)[C@@H]1O` [I-158, [(1R,2R,3S,4R)-4-({5-[5-(2-chlorophenyl)-2-furoyl]pyrimidin-4-yl}amino)-2,3-dihydroxycyclopentyl]methyl sulfamate], the inhibition at 0.111 µM (Concentration 0.111 μM) came to 86%.

On to `Cc1sc(C(=O)c2cncnc2N[C@@H]2C[C@H](COS(N)(=O)=O)[C@@H](O)C2)cc1CN1CCc2cc(Cl)ccc21` [I-159, [(1R,2S,4R)-4-{[5-({4-[(5-chloro-2,3-dihydro-1H-indol-1-yl)methyl]-5-methyl-2-thienyl}carbonyl)pyrimidin-4-yl]amino}-2-hydroxycyclopentyl]methyl sulfamate], for which the half-maximal inhibitory concentration (IC50) is less than 10 nM. For the same molecule, the inhibition at 0.111 µM (Concentration 0.111 μM) turned out to be 91%.

In the case of `Cc1nn(Cc2csc(C(=O)c3cncnc3N[C@@H]3C[C@H](COS(N)(=O)=O)[C@@H](O)C3)c2)c2cnccc12` [I-160, [(1R,2S,4R)-2-hydroxy-4-{[5-({4-[(3-methyl-1H-pyrazolo[3,4-c]pyridin-1-yl)methyl]-2-thienyl}carbonyl)pyrimidin-4-yl]amino}cyclopentyl]methyl sulfamate], the IC50 is less than 10 nM. The inhibition at 0.111 µM (Concentration 0.111 μM) came to 92%.

As for `NS(=O)(=O)OC[C@H]1C[C@@H](Nc2ncncc2C(=O)c2cc(COc3ccccc3I)cs2)C[C@@H]1O` [I-161, [(1R,2S,4R)-2-Hydroxy-4-{[-({4-(2-iodophenoxy)methyl]-2-thienyl}carbonyl)pyrimidin-4-yl]amino}cyclopentyl]methyl sulfamate], the half-inhibitory concentration (IC50) is less than 10 nM. Further, the “Percent Inhibition” value (Concentration 0.111 μM) worked out at 91.

For `NS(=O)(=O)OC[C@H]1C[C@@H](Nc2ncncc2C(=O)c2cc(Cc3ccccc3)c(Cl)s2)[C@@H](F)[C@@H]1O` [I-162, [(1R,2R,3R,4R)-4-({5-[(4-Benzyl-5-chloro-2-thienyl)carbonyl]pyrimidin-4-yl}amino) 3-fluoro-2-hydroxycyclopentyl]methyl sulfamate], the IC50 was in the range of 10 to 100 nM. Besides, where the note is “Concentration 0.111 μM”, the inhibition at 0.111 µM stood at 91%.

Regarding `NS(=O)(=O)OC[C@H]1C[C@@H](Nc2ncncc2C(=O)c2cc(COc3ccc(Cl)cc3)cs2)C[C@@H]1O` [I-163, [(1R,2S,4R)-4-{[5-({4-[(4-chlorophenoxy)methyl]-2-thienyl}carbonyl)pyrimidin-4-yl]amino}-2-hydroxycyclopentyl]methyl sulfamate], the IC50 is 10 to 100 nM. Also, the inhibition at 0.111 µM (Concentration 0.111 μM) turned out to be 92%.
